Measured values published in US9359196B2, “Antiproliferative compositions comprising curcumin analogs and methods of producing and using same” (The Board of Regents of the University of Oklahoma, priority 2009, dated 2016).

Legend:
Type in all cases: cell-based, human
[1] = test system: H441 cells; test: Illumina microarray gene expression analysis of H441 cells; details: H441, 1 μM, 12 hours
Protocol: RNA Extraction and microarray sample processing: H441 cells were seeded in […] tissue culture plates at a density of 1×10^6 cells per well. The cells were allowed to attach and grow overnight and then treated with CLEFMA (n=5) at 1 μM in culture medium supplemented with 5% FBS. The DMSO concentration was maintained at 0.1% per well. Control wells (n=5) received equivalent volumes of DMSO without any test compound. The cells were kept in the treatment medium for 12 hours, after which the cells were washed twice with ice-cold Dulbecco's phosphate buffered saline (PBS). The total RNA was extracted using the RNAeasy kit (Qiagen, CA) as per the manufacturer's instructions. The quality of RNA was ascertained by the Nanodrop 2000 spectrophotometer (NanoDrop products, Wilmington, Del.).
The expression of >48,000 genes were compared using Illumina Human WG-6 v3 arrays. Hybridization to Illumina microarrays was performed at the Oklahoma Medical Research Foundation (Oklahoma City, USA). RNA (250 ng) from each sample was labeled using the Illumina Total Prep RNA Amplification Kit following the manufacturer's directions (Ambion, Austin, Tex.). Briefly, cDNA was reverse transcribed from RNA after priming with T7-oligo-dT, and cRNA was synthesized from the T7 promoter while incorporating biotinylated UTP. The cRNA was then hybridized overnight to Illumina BeadChips, and the microarray chips were washed with high stringency and labeled with streptavidin-Cy3 (Amersham Biosciences; Piscataway, N.J.) prior to scanning on an Illumina BeadArray Reader.
Microarray Data Analysis: The Illumina WG-6_v3 array data for each experimental condition were exported from the BeadStudio Software for further analysis. The data were normalized as described previously [Dozmorov et al., 2004; Dozmorov et al., 2009] using the variability of low-expressing genes as a reference point. In order to find genes expressed above the level of technical noise, a frequency histogram of raw expression values was examined for each array. The histogram yielded a right-skewed unimodal distribution curve with a mode of approximately 75. A normal distribution curve representing the variability of the data around zero was then fitted around the mode, mirroring the Gaussian profile of the left part of the histogram. Its parameters were then defined (mean and standard deviation (SD)) and the data were normalized to the standard deviation of the noise after subtraction of the mean. […] The data were then filtered to remove genes with an expression value less than 3.0. This is equivalent to setting a threshold at 3 SD above the noise level. The genes that expressed below the noise level under all experimental conditions (approximately 1,600) were excluded from consideration, as their expression could not be reliably assessed. Full microarray data were deposited in the Gene Expression Omnibus (GEO, GSE23420) and are accessible on the GEO web site.
To identify differentially expressed genes between two experimental groups, the associative analysis as described elsewhere [Dozmorov et al., 2009] was used. Briefly, a reference group of genes expressed above background with low variability of expression in pooled microarray datasets was identified by an F-test. […] For the genes with statistically significant variability above the random, the variations were assumed to have biological reasons. An associative t-test was applied to investigate if a given gene belongs to a certain group. […]

[2] = test system: H441 cells; test: Reactive oxygen species assay (DCFH-DA) in H441 cells; details: 24 and 48 h
Protocol: Reactive oxygen species (ROS) assay: The CLEFMA-induced generation of ROS in H441 and CCL-151 cells was measured using the OxiSelect assay kit (Cell Biolabs, Inc., San Diego, Calif.). Briefly, the cells were cultured in 96-well plates, and the cell-permeable fluorogenic probe 2′,7′-dichlorodihydrofluorescin diacetate (DCFH-DA) was added to the wells and the plate was incubated for 30-60 min. The wells were washed thrice with PBS and treated with CLEFMA in culture medium for 24 and 48 h. After the incubation period, the medium was removed and the cells were gently washed 2-3 times with PBS, and the fluorescence, indicating ROS activity, was measured at 480 nm/530 nm (excitation/emission wavelengths) using the Cytoflour 2300 (Millipore, Billerica, Mass.).

[3] = test system: H441 cells; test: MitoSOX Red mitochondrial superoxide imaging / flow cytometry; details: 0-20 μM, 12-48 h
Protocol: MitoSOX Red mitochondrial superoxide imaging: Cells were grown to 70% confluency in 24-well tissue culture plates and treated with CLEFMA (0-20 μM) for 12-48 h; treatment with hydrogen peroxide (H2O2, 10 μM) served as a positive control. At the end of the incubation period, both the non-adherent and adherent cells were incubated with 5 μM MitoSOX Red solution (Invitrogen, Carlsbad, Calif.) for 30 min at 37° C. For flow cytometric analysis, the MitoSOX-loaded cells were trypsinized and collected in HBSS (with Ca/Mg) containing 1% BSA and suspended at a density of 1−2×10^7 cells/ml. Approximately 5-10 million cells were aliquoted into a binding buffer and run through an automated dual-laser-excited FACS Calibur (Flow and Imaging Core Facility, OUHSC, Oklahoma City) measuring at 488 nm excitation wavelength. The data were collected at the FSC, FL2 and FL3 channels for at least 10,000 events, and the histogram and dot-plot charts were obtained and analyzed using Summit V4.3 software (Dako Colorado Inc, Carpinteria, Calif.). For microscopy, the MitoSOX-loaded cells were counterstained with 1 μg/ml Hoechst 33342 dye (Molecular Probes, Carlsbad, Calif.). […]

O=C(O)C=CC(=O)N1CC(=Cc2ccccc2Cl)C(=O)C(=Cc2ccccc2Cl)C1 [Compound 29, 4-[3,5-Bis-(2-chlorobenzylidene)-4-oxo-piperidin-1-yl]-4-oxo-2-butenoic acid]
GAPDH expression increase [1]: 1.3 fold
HMOX1 expression increase [1]: 5.3 fold
SOD1 expression increase [1]: 1.3 fold
SULTA1 expression increase [1]: 3.8 fold
SULTA2 expression increase [1]: 8.5 fold
ROS generation [2]: generated ROS in a dose- and time-dependent fashion
mitochondrial ROS production (MitoSOX) [3]: time- and dose dependent increase in mitochondrial ROS production
